Laboratory results: ChEMBL document CHEMBL5120863, “Sophorolipids: Anti-cancer activities and mechanisms” (Bioorg Med Chem, 2022)
≈ marks a conversion by molar mass, not a printed value.

Legend:
[1] = system: Jurkat; experiment: Cytotoxicity against human Jurkat cells assessed as reduction in cell viability at 25 ug/ml measured after 24 hrs; type: functional; settings: dose 25 µg/ml
[2] = system: MDA-MB-231; experiment: Cytotoxicity against human MDA-MB-231 cells assessed as cell growth inhibition measured after 24 hrs by crystal violet staining based assay; type: functional; settings: MDA-MB-231, 24 h
[3] = system: HeLa; experiment: Cytotoxicity against human HeLa cells assessed as cell growth inhibition measured after 24 hrs by MTT assay; type: functional, cell-based
[4] = system: MCF7; experiment: Cytotoxicity against human MCF7 cells assessed as cell growth inhibition measured after 48 hrs by MTT assay; type: functional, cell-based; settings: MCF7, 48 h
[5] = system: HeLa; experiment: Cytotoxicity against human HeLa cells assessed as cell growth inhibition measured after 48 hrs by MTT assay; type: functional, cell-based
[6] = system: HCT-116; experiment: Cytotoxicity against human HCT-116 cells assessed as cell growth inhibition measured after 48 hrs by MTT assay; type: functional, cell-based; settings: HCT-116, 48 h
[7] = system: A549; experiment: Cytotoxicity against human A549 cells assessed as cell growth inhibition measured after 48 hrs by MTT assay; type: functional, cell-based; settings: A549, 48 h
[8] = system: PANC-1; experiment: Cytotoxicity against human PANC-1 cells assessed as cell growth inhibition measured after 48 hrs by MTT assay; type: functional, cell-based; settings: PANC-1, 48 h
[9] = Cytotoxicity against human HUVEC cells assessed as cell growth inhibition measured after 48 hrs by MTT assay; type: toxicity, cell-based
[10] = Cytotoxicity against human L929 cells assessed as cell growth inhibition measured after 48 hrs by MTT assay; type: toxicity, cell-based; settings: mouse
[11] = system: PANC-1; experiment: Cytotoxicity against human PANC-1 cells assessed as cell growth inhibition measured after 72 hrs by MTT assay; type: functional, cell-based; settings: PANC-1, 72 h
[12] = system: A-431; experiment: Cytotoxicity against human A-431 cells assessed as cell growth inhibition measured after 48 hrs by MTT assay; type: functional, cell-based; settings: A-431, 48 h
[13] = system: HPAC; experiment: Cytotoxicity against human HPAC cells assessed as reduction in LDH release at 100 ug/ml measured after 12 hrs by CytoTox96 nonradioactive assay; type: functional; set-up: scale not given: the % may be the effect or the level left; settings: dose 100 µg/ml
[14] = system: HL-60; experiment: Cytotoxicity against human HL-60 cells assessed as cell growth inhibition measured after 48 hrs; type: functional, cell-based; settings: HL-60, 48 h
[15] = Antitumor activity against human HeLa cells xenografted in BALB/c mouse assessed as reduction in tumor weight at 5 mg/kg, IG administered once daily for 12 days measured after 14 days; type: functional; set-up: scale not given: the % may be the effect or the level left; settings: time 12 day
[16] = Antitumor activity against human HeLa cells xenografted in BALB/c mouse assessed as reduction in tumor weight at 50 mg/kg, IG administered once daily for 12 days measured after 14 days; type: functional; set-up: scale not given: the % may be the effect or the level left; settings: time 12 day
[17] = Antitumor activity against human HeLa cells xenografted in BALB/c mouse assessed as reduction in tumor weight at 500 mg/kg, IG administered once daily for 12 days measured after 14 days; type: functional; set-up: scale not given: the % may be the effect or the level left; settings: time 12 day
[18] = system: ECa-109 cell line; experiment: Cytotoxicity against human Eca-109 cells assessed as cell growth inhibition measured after 24 hrs by MTT assay; type: functional, cell-based; settings: ECa-109, 24 h
[19] = system: KYSE-450; experiment: Cytotoxicity against human KYSE-450 cells assessed as cell growth inhibition measured after 24 hrs by MTT assay; type: functional, cell-based; settings: KYSE-450, 24 h
[20] = system: A549; experiment: Cytotoxicity against human A549 cells assessed as cell growth inhibition measured after 48 hrs; type: functional, cell-based; settings: A549, 48 h
[21] = system: K562; experiment: Cytotoxicity against human K562 cells assessed as cell growth inhibition measured after 48 hrs; type: functional, cell-based; settings: K562, 48 h
[22] = Cytotoxicity against human CCD-841CoN cells assessed as cell growth inhibition measured after 24 hrs by MTT assay; type: toxicity, cell-based
[23] = system: THP-1; experiment: Cytotoxicity against human THP-1 cells assessed as cell growth inhibition measured after 24 hrs by MTT assay; type: functional, cell-based; settings: THP-1, 24 h
[24] = system: THP-1; experiment: Cytotoxicity against human THP-1 cells assessed as cell growth inhibition measured after 48 hrs by MTT assay; type: functional, cell-based; settings: THP-1, 48 h
[25] = system: THP-1; experiment: Cytotoxicity against human THP-1 cells assessed as cell growth inhibition measured after 72 hrs by MTT assay; type: functional, cell-based; settings: THP-1, 72 h
[26] = Cytotoxicity against human HEK293 cells assessed as cell growth inhibition measured after 24 hrs by MTT assay; type: toxicity, cell-based
[27] = Cytotoxicity against human HEK293 cells assessed as cell growth inhibition measured after 48 hrs by MTT assay; type: toxicity, cell-based
[28] = Cytotoxicity against human HEK293 cells assessed as cell growth inhibition measured after 72 hrs by MTT assay; type: toxicity, cell-based
[29] = system: LN-229; experiment: Cytotoxicity against human LN-229 cells assessed as cell growth inhibition measured after 48 hrs; type: functional, cell-based; settings: LN-229, 48 h
[30] = system: MDA-MB-231; experiment: Cytotoxicity against human MDA-MB-231 cells assessed as reduction in cell viability at 3.68 ug/ml measured after 24 hrs by MTT assay relative to control; type: functional; settings: dose 3.68 µg/ml
[31] = system: MDA-MB-231; experiment: Cytotoxicity against human MDA-MB-231 cells assessed as reduction in cell viability at 3.68 ug/ml measured after 48 hrs by MTT assay relative to control; type: functional; settings: dose 3.68 µg/ml
[32] = system: MCF7; experiment: Cytotoxicity against human MCF7 cells assessed as reduction in cell viability at 14.7 ug/ml measured after 24 hrs by MTT assay relative to control; type: functional; settings: dose 14.7 µg/ml
[33] = system: MCF7; experiment: Cytotoxicity against human MCF7 cells assessed as reduction in cell viability at 14.7 ug/ml measured after 48 hrs by MTT assay relative to control; type: functional; settings: dose 14.7 µg/ml
[34] = system: HT-29; experiment: Cytotoxicity against human HT-29 cells assessed as cell growth inhibition; type: functional, cell-based
[35] = system: LS180; experiment: Cytotoxicity against human LS180 cells assessed as cell growth inhibition; type: functional, cell-based
[36] = system: Caco-2; experiment: Cytotoxicity against human Caco2 cells assessed as cell growth inhibition measured after 24 by MTT assay; type: functional, cell-based
[37] = system: Jurkat; experiment: Cytotoxicity against human Jurkat cells assessed as cell growth inhibition measured after 45 hrs; type: functional, cell-based
[38] = system: Jurkat; experiment: Cytotoxicity against human Jurkat cells assessed as cell growth inhibition measured after 24 hrs; type: functional, cell-based

## CCOC(=O)CCCCCCC/C=C\CCCCCCC(C)O[C@@H]1O[C@H](COC(C)=O)[C@@H](O)[C@H](O)[C@H]1O[C@@H]1O[C@H](COC(C)=O)[C@@H](O)[C@H](O)[C@H]1O (stereo partly specified)
[1]
  Activity: 90%

## CCCCOC(=O)CCCCCCC/C=C\CCCCCCC(C)O[C@@H]1O[C@H](COC(C)=O)[C@@H](O)[C@H](O)[C@H]1O[C@@H]1O[C@H](COC(C)=O)[C@@H](O)[C@H](O)[C@H]1O (stereo partly specified)
[1]
  Activity: 99%

## CC(=O)OC[C@H]1O[C@H]2OC(C)CCCCCCCCCCCCCCCC(=O)O[C@H]3[C@H](O)[C@@H](O)[C@H](O[C@@H]2[C@@H](O)[C@@H]1O)O[C@@H]3COC(C)=O (stereo partly specified)
[2]
  IC50: 15 µM
[3]
  IC50: 30.2 µg/mL (≈ 43.7 µM)

## CCCCCCCCCCCCCCCCO[C@@H]1O[C@H](COC(C)=O)[C@@H](O)[C@H](O)[C@H]1O[C@@H]1O[C@H](CO)[C@@H](O)[C@H](O)[C@H]1O
[4]
  IC50: 37.7 µg/mL (≈ 61.9 µM)
[5]
  IC50: 14.1 µg/mL (≈ 23.2 µM)
[6]
  IC50: 23.2 µg/mL (≈ 38.1 µM)
[7]
  IC50: 15 µg/mL
[8]
  IC50: 116 µg/mL (≈ 191 µM)
[9]
  IC50 at 48 h: > 320 µg/mL
[10]
  IC50 at 48 h: > 320 µg/mL
[11]
  IC50: > 100 µg/mL
[12]
  IC50: 14.9 µg/mL (≈ 24.6 µM)

## CCCCOC(=O)CCCCCCC/C=C\CCCCCCC(C)O[C@@H]1O[C@H](CO)[C@@H](O)[C@H](O)[C@H]1O[C@@H]1O[C@H](CO)[C@@H](O)[C@H](O)[C@H]1O (stereo partly specified)
[1]
  Activity: 0%

## COC(=O)CCCCCCC/C=C\CCCCCCC(C)O[C@@H]1O[C@H](CO)[C@@H](O)[C@H](O)[C@H]1O[C@@H]1O[C@H](CO)[C@@H](O)[C@H](O)[C@H]1O (stereo partly specified)
[13]
  Activity: 58.4%

## CC(=O)OC[C@H]1O[C@H]2OC(C)/C=C/C/C=C/C/C=C\CCCCCCCC(=O)O[C@H]3[C@H](O)[C@@H](O)[C@H](O[C@@H]2[C@@H](O)[C@@H]1O)O[C@@H]3COC(C)=O (stereo partly specified)
[2]
  IC50: 30 µM
[3]
  IC50: 51.5 µg/mL (≈ 75.2 µM)
[14]
  IC50: 5 µg/mL (≈ 7.3 µM)

## CCOC(=O)CCCCCCC/C=C\CCCCCCC(C)O[C@@H]1O[C@H](COC(C)=O)[C@@H](O)[C@H](O)[C@H]1O[C@@H]1O[C@H](CO)[C@@H](O)[C@H](O)[C@H]1O (stereo partly specified)
[13]
  Activity: 27.4%

## CC(CCCCCC/C=C\CCCCCCCC(=O)O)O[C@@H]1O[C@H](CO)[C@@H](O)[C@H](O)[C@H]1O[C@@H]1O[C@H](CO)[C@@H](O)[C@H](O)[C@H]1O (stereo partly specified)
[2]
  IC50: 80 µM

## CC(=O)OC[C@H]1O[C@H]2O[C@H]3[C@H](OC(C)CCCCCC/C=C\CCCCCCCC(=O)O[C@H]1[C@H](O)[C@H]2O)O[C@H](CO)[C@@H](O)[C@@H]3O (stereo partly specified)
[2]
  IC50: 15 µM
[15]
  Activity: 29.9%
[16]
  Activity: 41.24%
[17]
  Activity: 52.06%

## CC(=O)OC[C@H]1O[C@H]2OC(C)CCC/C=C/C/C=C\CCCCCCCC(=O)O[C@H]3[C@H](O)[C@@H](O)[C@H](O[C@@H]2[C@@H](O)[C@@H]1O)O[C@@H]3COC(C)=O (stereo partly specified)
[3]
  IC50: 476 µg/mL (≈ 694 µM)
[18]
  IC50: 15 µg/mL (≈ 21.8 µM)
[19]
  IC50: 35 µg/mL (≈ 51 µM)
[20]
  IC50: 22 µg/mL (≈ 32 µM)

## CCCCCCCCCCCCCCCCO[C@@H]1O[C@H](CO)[C@@H](O)[C@H](O)[C@H]1O[C@@H]1O[C@H](CO)[C@@H](O)[C@H](O)[C@H]1O
[4]
  IC50: 65.7 µg/mL (≈ 116 µM)
[5]
  IC50: 16.3 µg/mL (≈ 28.8 µM)
[6]
  IC50: 62.8 µg/mL (≈ 111 µM)
[7]
  IC50: 236 µg/mL
[8]
  IC50: 113 µg/mL (≈ 199 µM)
[9]
  IC50 at 48 h: > 320 µg/mL
[10]
  IC50 at 48 h: > 320 µg/mL
[11]
  IC50: > 100 µg/mL
[12]
  IC50: 236 µg/mL (≈ 417 µM)

## CC(=O)OC[C@H]1O[C@H]2OC(C)/C=C/C/C=C/C/C=C\C/C=C/CCCCC(=O)O[C@H]3[C@H](O)[C@@H](O)[C@H](O[C@@H]2[C@@H](O)[C@@H]1O)O[C@@H]3COC(C)=O (stereo partly specified)
[21]
  IC50: 40 µg/mL (≈ 58.6 µM)

## CCOC(=O)CCCCCCC/C=C\CCCCCCC(C)O[C@@H]1O[C@H](CO)[C@@H](O)[C@H](O)[C@H]1O[C@@H]1O[C@H](CO)[C@@H](O)[C@H](O)[C@H]1O (stereo partly specified)
[1]
  Activity: 0%
[13]
  Activity: 23.6%

## COc1cccc2c1C(=O)c1c(O)c3c(c(O)c1C2=O)C[C@@](O)(C(=O)CO)C[C@@H]3O[C@H]1C[C@H](N)[C@H](O)[C@H](C)O1 [DOXORUBICIN]
[22]
  IC50 at 24 h: 1.5 µg/mL (≈ 2.76 µM)
[3]
  IC50: 7.4 µg/mL (≈ 13.6 µM)
[5]
  IC50: 13 µg/mL (≈ 23.9 µM)
[23]
  IC50: 15.7 µg/mL (≈ 28.9 µM)
[24]
  IC50: 6.5 µg/mL (≈ 12 µM)
[25]
  IC50: 3 µg/mL (≈ 5.52 µM)
[7]
  IC50: 9.5 µM
[26]
  IC50 at 24 h: 16.7 µg/mL (≈ 30.7 µM)
[27]
  IC50 at 48 h: 6.1 µg/mL (≈ 11.2 µM)
[28]
  IC50 at 72 h: 1 µg/mL (≈ 1.84 µM)
[29]
  IC50: 2 µg/mL (≈ 3.68 µM)
[30]
  Activity: 55%
[31]
  Activity: 45%
[32]
  Activity: 45%
[33]
  Activity: 40%
[34]
  IC50: 1.6 µg/mL (≈ 2.94 µM)
[35]
  IC50: 0.7 µg/mL (≈ 1.29 µM)
[36]
  IC50: 64.2 µg/mL (≈ 118 µM)
[37]
  IC50: 0.3 µM
[38]
  IC50: 1 µM

## COC(=O)CCCCCCC/C=C\CCCCCCC(C)O[C@@H]1O[C@H](COC(C)=O)[C@@H](O)[C@H](O)[C@H]1O[C@@H]1O[C@H](COC(C)=O)[C@@H](O)[C@H](O)[C@H]1O (stereo partly specified)
[13]
  Activity: 25.5%
